# In US9353090B2, “Heterocyclic carboxylic acids as activators of soluble guanylate cyclase” (Boehringer Ingelheim International GmbH, priority 2014, dated 2016):
# How the values were obtained:
# [1] = Human liver microsome (HLM) metabolic stability assay; format: in vitro ADME; conditions: human liver microsomes
# Outline: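 Remaining parent measured by LC/MS/MS (ESI, MRM) at 5, 15, 30 and 60 min relative to 0 min. Incubation: 1 uM compound, HLMs, NADPH-started, 37° C., 60 min total, single replicate. Slope of ln(% remaining) gives t1/2 = 0.693/slope, then CLint, CLh and % Qh.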
# [2] = 24 h
# [3] = molecular target: human soluble guanylate cyclase alpha 1 and beta 1 subunits (sGC) (Homo sapiens (Human), UniProt Q02108+Q02153); assay: sGC cellular activator assay (cGMP, HTRF), in the presence and absence of 50% human serum; format: cell-based; conditions: CHO cells stably expressing human sGC alpha 1/beta 1, preincubated with 40 microM ODQ; cGMP by HTRF; Table 2 does not state whether with or without 50% human serum
# Outline: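 First, CHO-sGC (human α1β1) cells get 1 h ODQ at 40 microM with IBMX and 0.1% BSA. Finally, cGMP is quantified by HTRF and EC50 computed.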
# physchem = conditions: kinetic from dmso stock
# [4] = pH 2.2, aqueous buffer, Solubility (pH 2.2)
# [5] = pH 4.5, aqueous buffer, Solubility (pH 4.5)
# [6] = pH 6.8, aqueous buffer, Solubility (pH 6.8)
# Chain of human soluble guanylate cyclase alpha 1 and beta 1 subunits (sGC) (Q02108 whole entry partner): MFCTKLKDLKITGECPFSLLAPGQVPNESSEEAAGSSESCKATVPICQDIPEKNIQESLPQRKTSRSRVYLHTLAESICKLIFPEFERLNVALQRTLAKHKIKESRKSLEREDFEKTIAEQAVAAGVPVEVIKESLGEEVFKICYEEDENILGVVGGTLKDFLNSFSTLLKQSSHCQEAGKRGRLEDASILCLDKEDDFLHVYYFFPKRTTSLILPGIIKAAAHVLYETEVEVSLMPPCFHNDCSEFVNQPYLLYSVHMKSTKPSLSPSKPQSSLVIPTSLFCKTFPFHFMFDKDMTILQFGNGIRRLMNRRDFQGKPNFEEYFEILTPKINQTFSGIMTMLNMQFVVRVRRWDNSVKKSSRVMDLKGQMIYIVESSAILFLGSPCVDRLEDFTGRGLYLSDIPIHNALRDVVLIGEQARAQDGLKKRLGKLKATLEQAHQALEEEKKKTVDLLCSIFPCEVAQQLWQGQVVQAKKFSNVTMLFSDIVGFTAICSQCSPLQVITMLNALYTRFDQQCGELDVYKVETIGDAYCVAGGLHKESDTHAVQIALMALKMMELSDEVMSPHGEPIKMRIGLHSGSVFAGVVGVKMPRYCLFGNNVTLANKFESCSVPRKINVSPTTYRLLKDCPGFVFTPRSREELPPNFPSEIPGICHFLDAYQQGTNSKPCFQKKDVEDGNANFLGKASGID
# Chain of human soluble guanylate cyclase alpha 1 and beta 1 subunits (sGC) (Q02153 whole entry): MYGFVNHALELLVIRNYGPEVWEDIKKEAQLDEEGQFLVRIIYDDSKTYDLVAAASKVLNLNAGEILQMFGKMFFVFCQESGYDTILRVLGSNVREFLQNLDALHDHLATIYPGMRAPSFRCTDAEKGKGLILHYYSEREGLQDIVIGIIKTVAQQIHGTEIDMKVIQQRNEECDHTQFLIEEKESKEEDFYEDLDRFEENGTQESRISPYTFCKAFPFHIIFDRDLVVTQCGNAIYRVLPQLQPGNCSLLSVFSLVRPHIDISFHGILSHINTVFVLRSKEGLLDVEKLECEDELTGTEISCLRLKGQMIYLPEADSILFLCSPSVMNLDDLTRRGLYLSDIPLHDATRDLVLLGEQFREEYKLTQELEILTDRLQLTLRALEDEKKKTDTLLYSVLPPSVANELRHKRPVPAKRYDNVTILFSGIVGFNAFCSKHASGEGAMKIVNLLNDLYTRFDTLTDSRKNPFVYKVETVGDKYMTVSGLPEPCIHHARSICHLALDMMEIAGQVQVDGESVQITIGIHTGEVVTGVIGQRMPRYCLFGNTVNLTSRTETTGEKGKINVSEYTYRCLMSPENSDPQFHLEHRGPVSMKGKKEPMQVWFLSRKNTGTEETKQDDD
"Metabolic stability (Qh %), % hepatic blood flow [1] [%]",Solubility (pH 2.2) [2] [μg/mL],Solubility (pH 4.5) [2] [μg/mL],Solubility (pH 6.8) [2] [μg/mL],EC50 [3] [nM],solubility at 24 h (physchem; [4]) [µg/mL],solubility at 24 h (physchem; [5]) [µg/mL],solubility at 24 h (physchem; [6]) [µg/mL],Structure (SMILES)
38,110,93,76,12,,,,"COC[C@H]1N(c2cccc(-c3cccc(C)c3OCc3cc(C)c4c(c3)CCN(C3CCOC3)C4)n2)C[C@@H]2C[C@@]21C(=O)O (single isomer, unassigned) [Compound 52]"
<24,130,96,90,29,,,,"CO[C@H]1CN(c2nc(-c3cccc(C)c3OCc3cc(C)c4c(c3)CCN(CC3COCCO3)C4)cs2)CC[C@H]1C(=O)O (single isomer, unassigned) [Compound 169]"
<24,100,89,62,16,,,,Cc1cc(COc2c(C)cccc2-c2cccc(N3C[C@@H]4C[C@]4(C(=O)O)C3)n2)cc2c1CN(C1CCOC1)CC2 (stereo partly drawn) [Compound 25]
61,,,,3,141,97.1,5.2,Cc1c(COc2ccccc2-c2cccc(N3CC[C@@]4(C(=O)O)C[C@H]4C3)n2)ccc2c1CCN(C(C)c1ccccn1)C2 (stereo partly drawn) [Compound 306]
<24,,,,19,127,101,81.2,CO[C@@H]1CN(c2cccc(-c3cccc(C)c3OCc3ccc4c(c3C)CN(C3CCOCC3)C4)n2)CC[C@@H]1C(=O)O [Compound 307]
43,,,,10,135,97.5,0.1,Cc1c(COc2ccccc2-c2cccc(N3CC[C@@]4(C(=O)O)C[C@H]4C3)n2)ccc2c1CCN(Cc1cncn1C)C2 [Compound 308]
54,,,,18,163,116,23.8,Cc1nccnc1C(C)N1CCc2c(ccc(COc3ccccc3-c3cccc(N4CC[C@@]5(C(=O)O)C[C@H]5C4)n3)c2C)C1 (stereo partly drawn) [Compound 309]
63,,,,3,99.5,61.6,0.5,Cc1cc(CN2CCc3c(ccc(COc4ccccc4-c4cccc(N5CC[C@@]6(C(=O)O)C[C@H]6C5)n4)c3C)C2)no1 [Compound 311]
<24,,,,3,155,143,146,CO[C@H]1CN(c2nc(-c3cccc(C)c3OCc3ccc4c(c3)[C@@H](C)CN(C3CCOCC3)CC4)cs2)CC[C@H]1C(=O)O [Compound 312]
<24,,,,7,141,136,133,CO[C@H]1CN(c2nc(-c3cccc(C)c3OCc3ccc4c(c3)[C@H](C)CN(C3CCOCC3)CC4)cs2)CC[C@H]1C(=O)O [Compound 313]
<24,,,,529,115,110,98.9,COC[C@H]1N(c2cccc(-c3cccc(C)c3OCc3cc(C)c4c(c3)OCCN(C3CCOCC3)C4)n2)C[C@@H]2C[C@@]21C(=O)O [Compound 314]
<24,,,,18,137,135,119,CCOC[C@H]1N(c2cccc(-c3cccc(C)c3OCc3cc(C)c4c(c3)CCN(C3CCOCC3)C4)n2)C[C@@H]2C[C@@]21C(=O)O [Compound 315]
39,,,,222,147,149,142,CCOC[C@@H]1N(c2cccc(-c3cccc(C)c3OCc3cc(C)c4c(c3)CCN(C3CCOCC3)C4)n2)C[C@@H]2C[C@@]21C(=O)O [Compound 316]
<24,,,,245,158,152,139,COC[C@H]1N(c2cccc(-c3cccc(C)c3OCc3cnc4c(c3)CCN(C3CCOCC3)CC4)n2)C[C@@H]2C[C@@]21C(=O)O [Compound 317]
<24,,,,739,151,123,73.7,COC[C@H]1N(c2cccc(-c3cccc(C)c3OCc3ccc4c(n3)CCN(C3CCOCC3)C4)n2)C[C@@H]2C[C@@]21C(=O)O [Compound 318]
25,,,,1,109,60.2,55.4,CO[C@H]1CN(c2nc(-c3cccc(Cl)c3OCc3ccc4c(c3)[C@@H](C)CN(C3CCOCC3)CC4)cs2)CC[C@H]1C(=O)O [Compound 319]
26,,,,4,115,60.6,46.4,CO[C@H]1CN(c2nc(-c3cccc(Cl)c3OCc3ccc4c(c3)[C@H](C)CN(C3CCOCC3)CC4)cs2)CC[C@H]1C(=O)O [Compound 320]
47,,,,3,112,41.5,50.5,CO[C@H]1CN(c2nc(-c3cccc(Cl)c3OCc3ccc4c(c3)[C@@H](C)CN(C3COC3)CC4)cs2)CC[C@H]1C(=O)O [Compound 321]
47,,,,7,110,36.4,60.2,CO[C@H]1CN(c2nc(-c3cccc(Cl)c3OCc3ccc4c(c3)[C@H](C)CN(C3COC3)CC4)cs2)CC[C@H]1C(=O)O [Compound 322]
45,,,,2,131,84.3,65.2,CO[C@H]1CN(c2nc(-c3cccc(C)c3OCc3ccc4c(c3)C(C)(C)CN(C3CCOCC3)CC4)cs2)CC[C@H]1C(=O)O [Compound 323]
<24,,,,2,134,103,77.5,CO[C@@H]1CN(c2cccc(-c3cccc(C)c3OCc3ccc4c(c3)C(C)(C)CN(C3CCOCC3)CC4)n2)CC[C@@H]1C(=O)O [Compound 324]
33,,,,7,131,69.1,67.4,CO[C@H]1CN(c2nc(-c3cccc(C)c3OCc3ccc4c(c3)[C@@H](C)CN(C3COC3)CC4)cs2)CC[C@H]1C(=O)O [Compound 325]
59,,,,1,129,91.1,71.6,CO[C@@H]1CN(c2cccc(-c3cccc(C)c3OCc3ccc4c(c3)C(C)(C)CN(C3COC3)CC4)n2)CC[C@@H]1C(=O)O [Compound 326]
61,,,,5,99.8,51.8,59.1,CO[C@@H]1CN(c2nc(-c3cc(F)cc(C)c3OCc3ccc4c(c3C)CCN(C3COC3)CC4)cs2)CC[C@@H]1C(=O)O [Compound 327]
45,,,,2,97.4,59.4,56.8,CO[C@@H]1CN(c2nc(-c3cc(F)cc(C)c3OCc3ccc4c(c3)[C@@H](C)CN(C3CCOCC3)CC4)cs2)CC[C@@H]1C(=O)O [Compound 328]
<24,,,,13,103,63.9,68,CO[C@@H]1CN(c2nc(-c3cc(F)cc(C)c3OCc3ccc4c(c3C)CCN(C3CCOCC3)CC4)cs2)CC[C@@H]1C(=O)O [Compound 329]
<24,,,,15,127,86.6,76.8,CO[C@@H]1CN(c2nc(-c3cccc(Cl)c3OCc3ccc4c(c3)[C@@H](C)CN(C3CCOCC3)CC4)cs2)CC[C@@H]1C(=O)O [Compound 332]
32,,,,54,69.9,37.6,30,Cc1cccc(-c2cccc(N3CC[C@H](C(=O)O)[C@@H]4OCCC[C@H]43)n2)c1OCc1ccc2c(c1C)CCN(C1COC1)CC2 [Compound 336]
<24,,,,130,113,80.5,78,Cc1cccc(-c2cccc(N3CC[C@H](C(=O)O)[C@@H]4OCCC[C@H]43)n2)c1OCc1ccc2c(c1C)CCN(C1CCOCC1)CC2 [Compound 337]
<24,,,,24,132,106,73.6,CO[C@@H]1CN(c2cccc(-c3cccc(C)c3OCc3cc(C)c4c(c3)CN(C3CCOCC3)C4)n2)CC[C@@H]1C(=O)O [Compound 338]
